Consider 5 compounds from patent US20150315188A1, “COMPOUNDS AND METHODS FOR TREATMENT OF HYPERTENSION” (MEDIVATION TECHNOLOGIES, INC., priority 2012, published 2015).

Data set [1] has as its target T1, Human adrenergic α2B receptor (Homo sapiens, UniProt P18089).
T1 sequence (P18089 1-450): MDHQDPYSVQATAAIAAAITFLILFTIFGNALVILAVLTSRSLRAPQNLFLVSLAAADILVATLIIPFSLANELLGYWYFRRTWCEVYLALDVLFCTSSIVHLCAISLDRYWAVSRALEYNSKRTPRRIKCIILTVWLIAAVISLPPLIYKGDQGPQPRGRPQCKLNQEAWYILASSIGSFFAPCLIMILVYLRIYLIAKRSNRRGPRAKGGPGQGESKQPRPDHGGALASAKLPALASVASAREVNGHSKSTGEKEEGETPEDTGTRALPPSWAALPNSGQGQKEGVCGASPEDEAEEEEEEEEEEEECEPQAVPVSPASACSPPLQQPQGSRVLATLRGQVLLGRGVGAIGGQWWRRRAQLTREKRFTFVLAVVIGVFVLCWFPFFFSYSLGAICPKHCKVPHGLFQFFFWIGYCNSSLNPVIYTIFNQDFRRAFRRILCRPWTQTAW
Description: β-Arrestin GPCR functional assay, adrenergic α2B (Protocol B). It is filed as cell-based. The settings on record: β-arrestin, antagonist vs nor-epinephrine EC80; read-out: IC50 Adrenergic α2B. A digest of the protocol:
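CHO cells overexpressing human α2B (PathHunter β-arrestin), 12,000 per well, 24 h at 37° C; compounds in 1% DMSO 30 min, then 50 nM norepinephrine (EC80) 90 min at 37° C.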

The target of data set [2] is T1, Human adrenergic α2B receptor. Description: Radioligand binding, adrenergic α2B (Protocol Group B). Also noted: purchased Milipore (Millipore). Conditions: Protocol Group B; for inhibition at 0.01 µM: 10 nM compound, read-out: Percentage inhibition of ligand binding, Adrenergic α2B (10 nM); for inhibition at 0.03 µM / Percentage inhibition of ligand binding, Adrenergic α2B (30 nM): 30 nM compound; for inhibition at 0.03 µM: read-out: Percentage inhibition of ligand binding, Adrenergic α2B (30 nM); for inhibition at 0.1 µM: 0.1 μM compound, read-out: Percentage inhibition of ligand binding, Adrenergic α2B (0.1 μM); for Ki: estimated Ki, read-out: Ki α2B; for Percentage inhibition of ligand binding, Adrenergic α2B (30 nM): 0.03 µM. A digest of the protocol:
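Compounds at various concentrations in 1% DMSO were tested on recombinant membranes in Tris-HCl pH 7.4 buffer containing MgCl2, CaCl2 and 0.2% BSA.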

Data set [3] can be described thus: Stability in the presence of human hepatocytes. It is filed as in vitro ADME. The settings on record: both sexes, human, cryopreserved hepatocytes, pH 7.4, human hepatocytes, 37° C., average of duplicates, ^a = 0-120 minute time points, read-out: T1/2 Human. How it is done:
Compounds of the invention were tested for stability in the presence of dog, rat and human hepatocytes over a 4 hour period by LC/MS/MS. The study was performed by Integrated Analytical Solutions, Berkeley, Calif.
Reference Standards and Solutions: Compounds of the invention were stored as powders at ambient temperature in a desiccator and protected from light. Reference stock solutions of Compound Nos. 50a, 50b, 79a, 82, 91a and 178d, as 20 mM in DMSO were prepared and subsequently diluted to 2 mM in MeOH to provide working stock solutions (WSS). Unused standard solutions were stored at −20° C.
Hepatocyte Preparation: Human (mixed gender), Beagle dog (male) and Sprague Dawley rat (male) cryopreserved hepatocytes were purchased from Life Technologies Corporation. Hepatocytes were removed from liquid nitrogen, quickly thawed in a 37° C. water bath and transferred to Hepatocyte Thawing/Plating Medium (Cryopreserved Hepatocyte Recovery Medium, CHRM, Life Technologies Inc.). The cells were pelleted by slow speed centrifugation (˜100×g, 6 min) and resuspended at a high cell density. Hepatocyte viability was determined by trypan blue exclusion. Hepatocyte incubation medium (Life Technologies, Inc.) was added to generate a cell density of 2.0×10^6 cells/mL.
Hepatocyte Incubations for Stability: The 2 mM WSS was diluted 1 in 200 in hepatocyte incubation medium (pH 7.4) to 10 μM. A solution containing control compounds was prepared similarly to contain 10 μM each of dextromethorphan and testosterone. The solutions of test compounds and controls at 10 μM in hepatocyte incubation medium were pre-incubated at 37° C. for 10 min. Aliquots (250 μL) of hepatocyte suspensions (at 2.0×10^6 cells/mL) were transferred to appropriate 48-well plates and pre-incubated at 37° C. for 10 minutes. Metabolism was initiated by adding 250 μL pre-incubated medium (containing test drug) to wells containing cells. A negative control reaction excluding hepatocytes was used to monitor aqueous stability and/or non-specific adsorption. The final reaction mixtures contained 5 μM of test or control compound and 1.0×10^6 cells/mL. All reactions were performed in duplicate and carried at 37° C. in an incubator. Dextromethorphan and testosterone were used as control drugs to verify hepatocyte activity.
Aliquots were removed from each metabolism reaction at 0, 0.5, 2 and 4 hours. The reactions were terminated by adding each aliquot to a vessel containing 2× volumes (80 μL) of Internal Standard Solution (acetonitrile containing 50 ng/mL 2-(2,8-dimethyl-3,4-dihydro-1H-pyrido[4,3-b]indol-5(2H)-yl)-1-(pyridin-4-yl)ethanol (ISS1), 50 ng/mL of 2-(2,8-dimethyl-3,4-dihydro-1H-pyrido[4,3-b]indol-5(2H)-yl)-1-(piperidin-1-yl)ethanone (ISS2) and 5 ng/mL diphenhydramine. Terminated reactions were centrifuged at 6000 g for 30 mins at 4° C. to remove the precipitated proteins and cell debris. Following centrifugation, 20 μL of each supernatant was transferred to a deep-well microplate and diluted with 5× volumes (100 μL) of 0.2% formic acid in water. Compound 178d samples were diluted with 5× volumes (100 μL) of 0.1% HFBA in water. Samples were analyzed by LC/MS/MS.
Calculation of Metabolism Parameters: Percent remaining was measured by dividing the analyte/IS peak area ratio at the designated sample time by the peak area ratio at time 0. ISS1 served as the IS for Compound No. 178d. ISS2 served as the IS for Compound nos. 50a, 50b, 79a, 82 and 91a. The metabolic half-life (T1/2) was calculated using all time points unless otherwise noted. The T1/2 values were calculated as 0.693/k, where k is the slope of the log analyte/internal standard peak area ratio versus time. Metabolism rate was calculated by dividing the starting concentration of substrate by the concentration of hepatocytes, then dividing by the T1/2 value.

What is called IC50 is the concentration needed to halve the response being measured. What is called inhibition is how much of the control response was suppressed. One may read the Ki as the dissociation constant of the complex between target and ligand, obtained from inhibition or displacement. Take `Cc1cc2c3c(n(CC(C)(O)c4ccncc4)c2cc1Cl)CCN1CCCC31` (single isomer, unassigned) [50a]: in data set [1], the IC50 was 14 nM. For the same compound, in data set [2], the inhibition at 0.01 µM stood at 95%, the inhibition at 0.03 µM stood at 99%, the inhibition at 0.1 µM was 100% and the Ki was 0.75 nM. Moreover, the half-life at 5 µM in data set [3] worked out at 1.92 h.
Consider `Cc1cc(Cl)c2c(c1)c1c(n2CC(C)(O)c2ccncc2)CCN2CCCC12` (single isomer, unassigned) [91a], for which the half-maximal inhibitory concentration (IC50) in data set [1] was found to be 16.4 nM. For the same compound, in data set [2], the inhibition at 0.01 µM was 93%, the inhibition at 0.03 µM was 95% and the inhibitory constant (Ki) was 0.7 nM. The half-life at 5 µM in data set [3] came to 2.3 h.
Take `Cc1ccc2c(c1)c1c(n2CC(O)c2ccncc2)CCN2CCCC12` (single isomer, unassigned) [Compound No. 178d]: in data set [2], the “Percentage inhibition of ligand binding, Adrenergic α2B (30 nM)” value worked out at 104% and the inhibition at 0.03 µM turned out to be 97%. In addition, in data set [3], the half-life at 5 µM was 2.23 h.
Take `Cc1cc(F)c2c(c1)c1c(n2CC(C)(O)c2cccnc2)CCN2CCCC12` (stereo not drawn) [Compound No. 79a]: the concentration for half-maximal inhibition (IC50) in data set [1] is 12 nM. Besides, in data set [2], the “Percentage inhibition of ligand binding, Adrenergic α2B (30 nM)” value is 96%; the inhibition at 0.1 µM turned out to be 97%; the Ki is 0.77 nM. For the same compound, the half-life at 5 µM in data set [3] is > 4 h.
Take `Cc1ccc2c(c1)c1c(n2C[C@@H](OC2CCCC2)c2ccncc2)CCN2CCC[C@H]12` [compound 82, (11cR)-7-[(25)-2-(cyclopentoxy)-2-(4-pyridyl)ethyl]-10-methyl-1,2,3,5,6,11c-hexahydroindolizino[7,8-b]indole]: the IC50 in data set [1] amounted to 25.4 nM. Also, in data set [2], the inhibition at 0.01 µM came out at 98%, the inhibition at 0.03 µM came to 99% and the inhibition constant Ki is 1.59 nM. Further, the half-life at 5 µM in data set [3] was determined as 0.817 h.
